Here are results for two compounds from patent publication US6120997A, “Nucleic acid binders having an hydroxyamine motif” (The Scripps Research Institute, priority 1998, dated 2000).

Data set [1] has as its system bacterial protein synthesis. Particulars: cited from earlier work.
The conditions of data set [2]: cited from earlier work.
In the next data set the test system is AS-U1495A. Nature of the data set: SPR binding of aminoglycosides to AS-U1495A. Particulars: HBS-buffer. How it is done: The RNA binding properties of 100-800 were analyzed using a surface plasmon resonance based assay that was recently developed in these laboratories. This assay allows the determination of both affinity and specificity of small molecule-RNA interactions. For the analysis, the compounds were injected over a matrix containing RNA that was immobilized through a biotin tag and the equilibrium binding values were recorded at various concentrations.
Non-linear curve fitting was then used to determine the values of the dissociation constants (KD). The specificity of binding, i.e. the ability to discriminate between different RNA sequences was evaluated by comparing the binding to the target sequence (AS-wt) and the negative control (AS-U1495A). […]
For the quantitative measurement of aminoglycoside binding to these sequences, we utilized our recently developed SPR-based assay. […]
In the same manner as illustrated for paromomycin, a panel of aminoglycosides was screened and the results are compiled in the table of FIGS. 46 and 47. […] All data were recorded under near physiological salt conditions (HBS-buffer: 150 mM NaCl, 10 mM HEPES, pH7.4, 3.4 mM EDTA) unless noted otherwise. […]
Plasmon resonance and antimicrobial testing for Example 4. Synthesis of the biotinylated RNA and surface plasmon resonance detected binding experiments were performed as described vida supra. […]

As for `NC[C@@H]1O[C@H](O[C@H]2[C@@H](O)[C@H](O[C@@H]3[C@@H](O)[C@H](N)C[C@H](N)[C@H]3O[C@H]3O[C@H](CN)[C@@H](O)[C@H](O)[C@H]3N)O[C@@H]2CO)[C@H](N)[C@@H](O)[C@@H]1O` [Neomycin B], the “effect on bacterial protein synthesis (in words)” value in data set [1] was “induces miscoding during translation”. Besides, the “pKa of N3” value in data set [2] was below 6.

On to `NC[C@@H]1O[C@H](O[C@H]2[C@@H](O)[C@H](O[C@@H]3[C@@H](O)[C@H](N)C[C@H](N)[C@H]3O[C@H]3O[C@H](CO)[C@@H](O)[C@H](O)[C@H]3N)O[C@@H]2CO)[C@H](N)[C@@H](O)[C@@H]1O` [Paromomycin], for which the “weaker binding to AS-U1495A than to AS-wt” value with AS-U1495A is 20 fold.
